Experiments:
female rat uterus = assay: Antiestrogenic effect on uterine wet weight, immature female Sprague-Dawley rats (Example 8); assay type: in vivo
[1] = system: progesterone receptor (PR); assay: Uterine progesterone receptor levels, hydroxyapatite assay (Example 8); assay type: in vivo, female Sprague-Dawley rats; conditions: for ED40-60 for Inhibition, PRc / ED40-60 for Inhibition, PRn: cotreatment with 17β-estradiol
Method: (§1) The animals were terminated by cervical dislocation. Livers were perfused with ice-cold TEDG buffer (10 mM Tris-HCl, 1.5 mM EDTA-4Na, 1 mM dithiothreitol, 10% glycerol (v/v), pH 7.4). Following perfusion in situ, livers were removed, weighed, and homogenized in ice-cold TEDG buffer. Uteri were also removed, weighed, and homogenized in ice-cold buffer. The homogenates were then centrifuged at 800×g ([…]) for 15 minutes and the nuclear pellets were stored at -80° C. The supernatants were further centrifuged at 180,000× g for 1.5 hours. The cytosolic supernatant was also stored at -80° C. Estrogen and progesterone receptor levels were determined within 7 days.
(§2) Estrogen (ER) and progesterone (PR) receptor levels were determined by the hydroxyapatite assay as described by Clark et al. (J. Steroid Biochem. 16:323-328, 1982) and incorporated herein by reference. […] Following the incubations, samples were counted and specific binding was calculated by subtraction of nonspecific from total binding. Assuming one steroid molecule binds to one estrogen/progesterone receptor, the number of moles of receptor can be calculated given the specific activity of the radioligand. The data presented in Tables 1 through 6 are means ± SD using at least four animals per treatment group. Significant differences were determined by analysis of variance.

estrogen receptor (ER) = assay: Uterine estrogen receptor levels, hydroxyapatite assay (Example 8); assay type: in vivo, female Sprague-Dawley rats; conditions: for ED40-60 for Inhibition, ERc / ED40-60 for Inhibition, ERn: cotreatment with 17β-estradiol
Method: A second group of animals was similarly treated with corn oil, TCDD, MCDF, or TCDD plus MCDF, all administered in corn oil at 10 ml/kg and terminated 72 hours later.
as §1, §2

[2] = Table 2: 50 μmol/kg + E-2 (2 × 10 μg/rat)
[3] = Table 2: compound alone, 50 μmol/kg (17β-estradiol: 2 × 10 μg/rat)
[4] = dose-response, 2 μmol/kg + 17β-estradiol (2 × 10 μg/rat)
[5] = dose-response, 10 μmol/kg + 17β-estradiol (2 × 10 μg/rat)
[6] = dose-response, 25 μmol/kg + 17β-estradiol (2 × 10 μg/rat)
[7] = dose-response, 50 μmol/kg + 17β-estradiol (2 × 10 μg/rat)
[8] = Table 3: 50 μmol/kg + E-2 (2 × 10 μg/rat)
[9] = Table 3: compound alone, 50 μmol/kg (17β-estradiol: 2 × 10 μg/rat)
[10] = 150 μmol/kg + E-2 (2 × 10 μg/rat), run B
[11] = compound alone, 150 μmol/kg (17β-estradiol: 2 × 10 μg/rat), run B

Cc1cc(Cl)cc2c1oc1c(Cl)c(Cl)c(Cl)cc12 [6-Methyl-2,3,4,8-tetraCDF, 6-Methyl-2,3,4,8-tetrachlorodibenzofuran]
Uterine Wet Weight (female rat uterus; [2]): 0.163 ± 0.019 % body wt
Uterine Wet Weight (female rat uterus; [3]): 0.109 ± 0.020 % body wt
Uterine Wet Weight (female rat uterus; [4]): 0.268 ± 0.044 % body wt
Uterine Wet Weight (female rat uterus; [5]): 0.221 ± 0.020 % body wt
Uterine Wet Weight (female rat uterus; [6]): 0.191 ± 0.006 % body wt
Uterine Wet Weight (female rat uterus; [7]): 0.158 ± 0.004 % body wt
Progesterone Receptor Levels, Cytosolic [1, 2]: 795 ± 52 fmol/mg protein
Progesterone Receptor Levels, Nuclear [1, 2]: 1081 ± 131 fmol/mg protein
Progesterone Receptor Levels, Cytosolic [1, 3]: 625 ± 71 fmol/mg protein
Progesterone Receptor Levels, Nuclear [1, 3]: 457 ± 58 fmol/mg protein
ED40-60 for Inhibition, PRc [1]: 2 µmol/kg
ED40-60 for Inhibition, PRn [1]: 10 µmol/kg
Progesterone Receptor Levels, Cytosolic [1, 4]: 1220 ± 85 fmol/mg protein
Progesterone Receptor Levels, Nuclear [1, 4]: 925 ± 74 fmol/mg protein
Progesterone Receptor Levels, Cytosolic [1, 5]: 970 ± 68 fmol/mg protein
Progesterone Receptor Levels, Nuclear [1, 5]: 765 ± 61 fmol/mg protein
Progesterone Receptor Levels, Cytosolic [1, 6]: 1000 ± 63 fmol/mg protein
Progesterone Receptor Levels, Nuclear [1, 6]: 645 ± 52 fmol/mg protein
Progesterone Receptor Levels, Cytosolic [1, 7]: 885 ± 53 fmol/mg protein
Progesterone Receptor Levels, Nuclear [1, 7]: 450 ± 36 fmol/mg protein
Estrogen Receptor Levels, Cytosolic (estrogen receptor (ER); [2]): 176.3 ± 20.3 fmol/mg protein
Estrogen Receptor Levels, Nuclear (estrogen receptor (ER); [2]): 69.9 ± 9.4 fmol/mg protein
Estrogen Receptor Levels, Cytosolic (estrogen receptor (ER); [3]): 96.2 ± 11.2 fmol/mg protein
Estrogen Receptor Levels, Nuclear (estrogen receptor (ER); [3]): 31.3 ± 5.6 fmol/mg protein
ED40-60 for Inhibition, ERc (estrogen receptor (ER)): 2 µmol/kg
ED40-60 for Inhibition, ERn (estrogen receptor (ER)): 2 µmol/kg
Estrogen Receptor Levels, Cytosolic (estrogen receptor (ER); [4]): 86.7 ± 4.3 fmol/mg protein
Estrogen Receptor Levels, Nuclear (estrogen receptor (ER); [4]): 64.7 ± 3.9 fmol/mg protein
Estrogen Receptor Levels, Cytosolic (estrogen receptor (ER); [5]): 83.9 ± 4.2 fmol/mg protein
Estrogen Receptor Levels, Nuclear (estrogen receptor (ER); [5]): 53.8 ± 3.2 fmol/mg protein
Estrogen Receptor Levels, Cytosolic (estrogen receptor (ER); [6]): 75.1 ± 3.8 fmol/mg protein
Estrogen Receptor Levels, Nuclear (estrogen receptor (ER); [6]): 49.3 ± 3.0 fmol/mg protein
Estrogen Receptor Levels, Cytosolic (estrogen receptor (ER); [7]): 71.0 ± 3.6 fmol/mg protein
Estrogen Receptor Levels, Nuclear (estrogen receptor (ER); [7]): 40.0 ± 2.4 fmol/mg protein

Cc1cc2oc3cc(Cl)c(Cl)cc3c2cc1Cl [7-Methyl-2,3,-triCDF, 7-methyl-2,3,8-trichlorodibenzofuran]
Uterine Wet Weight (female rat uterus; [8]): 0.255 ± 0.017 % body wt
Uterine Wet Weight (female rat uterus; [9]): 0.102 ± 0.011 % body wt
Progesterone Receptor Levels, Cytosolic [1, 8]: 924 ± 74 fmol/mg protein
Progesterone Receptor Levels, Nuclear [1, 8]: 554 ± 39 fmol/mg protein
Progesterone Receptor Levels, Cytosolic [1, 9]: 501 ± 35 fmol/mg protein
Progesterone Receptor Levels, Nuclear [1, 9]: 364 ± 26 fmol/mg protein
Estrogen Receptor Levels, Cytosolic (estrogen receptor (ER); [8]): 94.2 ± 4.71 fmol/mg protein
Estrogen Receptor Levels, Nuclear (estrogen receptor (ER); [8]): 48.1 ± 2.4 fmol/mg protein
Estrogen Receptor Levels, Cytosolic (estrogen receptor (ER); [9]): 72.9 ± 3.7 fmol/mg protein
Estrogen Receptor Levels, Nuclear (estrogen receptor (ER); [9]): 35.2 ± 1.8 fmol/mg protein

CC(C)c1cc(Cl)cc2c1oc1cc(Cl)cc(Cl)c12 [6-i-Propyl-1,3,8-triCDF]
Uterine Wet Weight (female rat uterus; [10]): 0.210 ± 0.012 % body wt
Uterine Wet Weight (female rat uterus; [11]): 0.154 ± 0.017 % body wt
antiuterotrophic activity (female rat uterus; rat, in vivo): surprisingly active
Progesterone Receptor Levels, Cytosolic [1, 10]: 2131 ± 76 fmol/mg protein
Progesterone Receptor Levels, Nuclear [1, 10]: 272 ± 19 fmol/mg protein
Progesterone Receptor Levels, Cytosolic [1, 11]: 1225 ± 59 fmol/mg protein
Progesterone Receptor Levels, Nuclear [1, 11]: 242 ± 17 fmol/mg protein
ED40-60 for Inhibition, PRc [1]: 25 µmol/kg
ED40-60 for Inhibition, PRn [1]: 25 µmol/kg
Estrogen Receptor Levels, Cytosolic (estrogen receptor (ER); [10]): 135.5 ± 78.1 fmol/mg protein
Estrogen Receptor Levels, Nuclear (estrogen receptor (ER); [10]): 52.6 ± 2.6 fmol/mg protein
Estrogen Receptor Levels, Cytosolic (estrogen receptor (ER); [11]): 95.2 ± 6.2 fmol/mg protein
Estrogen Receptor Levels, Nuclear (estrogen receptor (ER); [11]): 57.7 ± 2.9 fmol/mg protein
ED40-60 for Inhibition, ERc (estrogen receptor (ER)): 10 µmol/kg
ED40-60 for Inhibition, ERn (estrogen receptor (ER)): 25 µmol/kg

CC(C)(C)c1cc(Cl)cc2c1oc1cc(Cl)cc(Cl)c12 [6-t-Butyl-1,3,8-triCDF]
Uterine Wet Weight (female rat uterus; [10]): 0.247 ± 0.004 % body wt
Uterine Wet Weight (female rat uterus; [11]): 0.122 ± 0.013 % body wt
Progesterone Receptor Levels, Cytosolic [1, 10]: 1844 ± 77 fmol/mg protein
Progesterone Receptor Levels, Nuclear [1, 10]: 270 ± 19 fmol/mg protein
Progesterone Receptor Levels, Cytosolic [1, 11]: 1109 ± 83 fmol/mg protein
Progesterone Receptor Levels, Nuclear [1, 11]: 211 ± 15 fmol/mg protein
Estrogen Receptor Levels, Cytosolic (estrogen receptor (ER); [10]): 108.6 ± 11.4 fmol/mg protein
Estrogen Receptor Levels, Nuclear (estrogen receptor (ER); [10]): 41.7 ± 2.1 fmol/mg protein
Estrogen Receptor Levels, Cytosolic (estrogen receptor (ER); [11]): 85.5 ± 4.3 fmol/mg protein
Estrogen Receptor Levels, Nuclear (estrogen receptor (ER); [11]): 41.4 ± 2.1 fmol/mg protein

— patent US5516790A, “Synthesis and application of alkyl-substituted dibenzofurans as antitumorigenic agents” (Texas A&M University System Technology Licensing Office, priority 1994, dated 1996)
